In one data set the test system is H441 cells. Kind of data set: Transmission electron microscopy of treated H441 cells (autophagy). Type of data set: cell-based, human. Particulars: 24 hour treatment, 1 and 10 μM. As to the method:
Transmission Electron Microscopy (TEM): TEM was performed after 24 hour treatment with 1 and 10 μM of compound 1 or compound 29 (CLEFMA). The cells were fixed in 0.1M sodium cacodylate buffer containing 4% paraformaldehyde (PFA) and 2% glutaraldehyde for 4 h at room temperature. The samples were post-fixed in 1% osmium tetroxide for 1.5 h and washed with 0.1M sodium cacodylate buffer, followed by dehydration in an ethanol series of 50%, 60%, 75%, 85%, and 95% for 15 minutes each. The cells were washed twice in 100% Ethanol and passed through a series of epon-araldite (6.2 g epon+4.4 g araldite+12.4 g of dodecenyl succinic anhydride+0.8 g N,N-dimethylbenzylamine) solution in ethanol, [Matsko et al., 2005] before embedding the cells in epon-araldite resin. Finally, 100 nm sections were cut using a microtome, and the sections were placed on glow-discharged 300 mesh Copper grids. The ultrasections were stained with Sato's lead (mixture of calcinated lead citrate, lead nitrate, lead acetate and sodium citrate), and observed by a Hitachi H-7600 Transmission Electron Microscope at 2500× (Oklahoma Medical Research Foundation Imaging and core facility, Oklahoma City).

Data set [1] can be described thus: Octanol-water partition coefficient (pre-formulation). Type of data set: physicochemical. The text has this: The pre-formulation studies on CLEFMA depicted it as a highly hydrophobic drug with octanol-water partition coefficient of 5.66. It was hypothesized that liposomes might serve as a vehicle for CLEFMA preparation meant for parenteral administration. Parenteral liposome formulations of lipophilic drugs are challenging. Incorporation of a lipid-partitioning drug in liposomes may produce structurally instable liposomes, resulting in burst-release of drug, rapid clearance from the body, and/or overall poor efficacy. The entrapment of cyclodextrin (CD)-based inclusion complexes (IC) inside the liposomes can be a reliable and effective method of encapsulation of hydrophobic drugs. This strategy was first reported by Gregoriades [McCormack et al., 1994], and has recently been used for the encapsulation of isotretinoin [Kaur et al., 2010].

On to `O=C(O)C=CC(=O)N1CC(=Cc2ccccc2Cl)C(=O)C(=Cc2ccccc2Cl)C1` [Compound 29, 4-[3,5-Bis-(2-chlorobenzylidene)-4-oxo-piperidin-1-yl]-4-oxo-2-butenoic acid], for which, in the data set with H441 cells, the “change in cellular architecture (TEM)” value was “induced a substantial change in cellular architecture”. Besides, the octanol-water partition coefficient in data set [1] was 5.66.

The values are drawn from patent publication US9359196B2, “Antiproliferative compositions comprising curcumin analogs and methods of producing and using same” (The Board of Regents of the University of Oklahoma, priority 2009, dated 2016).
